Source: patent US4432993A, “Method of treating obesity hyperglycemia, inflammation and platelet aggregation” (priority 1980, dated 1984)

Assays:
genetically obese mice = experiment: Anti-obesity activity: carcass lipid in genetically obese mice; type: in vivo
Method: The compounds were administered by oral gavage in water or carboxymethyl-cellulose suspension to genetically obese mice daily for 28 days. At the end of the time the carcass composition was determined.

[1] = tested on: inflammation induced in the rat ear by croton oil; experiment: Anti-inflammatory activity: croton oil induced inflammation of the rat ear; type: in vivo; conditions: 2.0 mg/RAT EAR, 6 hours; activity = significant (5% level) reduction in ear weight vs non-drug treated control
Method: The method used is based on that described by G. Tonelli et al (Endocrinology, 77, 625-634, 1965). An inflammation is induced in the rat ear by the application of 50 μl of a 1% solution of croton oil in tetrahydrofuran, test compounds being dissolved in the irritant vehicle. After 6 hours the inflammation is assessed by killing the animals and weighing the ears. Topical anti-inflammatory activity of a compound is generally considered to be shown when a significant (5% level) reduction in ear weight is seen compared to non-drug treated control.

[2] = tested on: Blood platelet response to collagen; experiment: Platelet aggregation inhibition activity (collagen-induced fall in blood platelet concentration); type: in vivo, Male CFLP mice; conditions: 2 h after p.o. dose; collagen 400 μg/kg i.v.; Aspirin 600 μmol (108 mg)/kg, p < 0.05; Example 3 5 μmol (1.92 mg)/kg, p = 0.01
Method: Male CFLP mice (ca 20 g, n=8) were dosed orally with compound or vehicle (controls) after an overnight fast. Two hours later each mouse received an intravenous dose of collagen (400 μg/kg, pH 6-6.6). Exactly 30 sec. after injection of collagen, each mouse was placed in a chamber of CO2 until respiration ceased. […] Each concentration was expressed as a percent of that obtained in a tail blood sample taken immediately before injection of collagen.

[3] = p.o. daily for 28 days, Ex. 5 mp 102-5: 4.8 mg/kg, control 21.10, Ex. 10: 8.6 mg/kg, control 23.13

| Compound | g LIPID/MOUSE, TREATED (genetically obese mice; [3]) [g LIPID/MOUSE] | % Inhibition of response to collagen [2] [%] | also measured |
| --- | --- | --- | --- |
| Cc1ccc(C[C@@H](C)NC[C@@H](O)c2cc3ccccc3o2)cc1 (relative stereo) [Example 5 mp 102-5, N-[2-(4-methylphenyl)-1-methylethyl]-2-(2-benzofuranyl)-2-hydroxyethanamine] | 16.16 |  | ACTIVITY (topical anti-inflammatory) [1]: Active |
| CC(=O)Oc1ccccc1C(=O)O [Aspirin, reference compound] |  | 29 |  |
| Cc1ccc(CC(C)NCC(O)c2cc3ccccc3o2)cc1 (stereo not drawn) [Example 1, N-[2-(4-Methylphenyl)-1-methylethyl]-2-(2-benzofuranyl)-2-hydroxy ethanamine] |  |  | g LIPID/MOUSE, TREATED (genetically obese mice; 4.8 mg/kg p.o. daily, 15 days only, control 16.25): 13.36 g LIPID/MOUSE |
| COC(=O)COc1ccc(CC(C)NCC(O)c2cc3ccccc3o2)cc1 (stereo not drawn) [Example 3, N-[2-(4-Carbomethoxymethoxyphenyl)-1-methylethyl]-2-(2-benzofuranyl)-2-hydroxyethanamine] |  | 29 |  |
| Cc1ccc(CCCNCC(O)c2cc3ccccc3o2)cc1 (stereo not drawn) [Example 10, N-[3-(4-Methylphenyl)propyl]-2-(2-benzofuranyl)-2-hydroxyethanamine] | 19.72 |  |  |
